Assay results taken from patent US11547677B2, “Transmucosal delivery system for idebenone” (LTS LOHMANN THERAPIE-SYSTEME AG, priority 2017, dated 2023).
Where a name gives a salt, the structure may show the parent alone.

Tests used:
[1] = n-octanol/water; cited from earlier work
[2] = Saturation concentration of idebenone in the inner, hydrophobic, phase (HPLC of supernatant); assay type: physicochemical; details: in composition of the 2nd table (vitamin E, Polysorbate 80, methyl salicylate, eucalyptol, tributyl citrate, Brij S2)
Method: Idebenone is added in excess to the inner, hydrophobic, phase, so that even after relatively long stirring solid dregs of active ingredient are still present. Then the dregs are removed by centrifuging. The resulting supernatant contains idebenone in its saturation concentration. This is determined by analysis for example by means of HPLC. The saturation concentration of idebenone for an exemplified composition according to the invention was determined as follows. [table]

[3] = oral administration; cited from earlier work

Row | saturation concentration ([2]; 4° C.) [g/L] | saturation concentration ([2]; room temperature) [g/L] | Compound | LogP [1] | idebenone metabolised in the first-pass metabolism [3]
1 |  |  | CC12CCC(CC1)C(C)(C)O2 [EUC, eucalyptol] | LogP = 2.8 | 
2 |  |  | COC(=O)c1ccccc1O [MS, methyl salicylate] | LogP = 2.24 | 
3 |  |  | CCCCOC(=O)CC(O)(CC(=O)OCCCC)C(=O)OCCCC [TBC, tributyl citrate] | LogP = 4.7 | 
4 | 103 | 145 | COC1=C(OC)C(=O)C(CCCCCCCCCCO)=C(C)C1=O [idebenone, 2-(10-hydroxydecyl)-5,6-dimethoxy-3-methyl-cyclohexa-2,5-diene-1,4-dione] |  | more than 98%
